Measured values taken from patent US10550099B2 (FORMA Therapeutics, Inc., priority 2014, dated 2020).
Where two headings read alike, the source gives them in different places.

Legend:
[1] = test system: HCT116 isogenic IDH1-R132H mutant cells; assay: Cellular 2-HG assay using HCT116 mutant IDH1 cells (IDH1-R132H), RapidFire mass spectrometry; assay type: cell-based
Method: (§1) Example 106—Cellular 2-HG Assay Using HCT116 Mutant IDH1 Cells
(§2) HCT116 isogenic IDH1-R132H and IDH1-R132C mutant cells were cultured in growth media (McCoy's 5A, 10% fetal bovine serum, 1× antibiotic-antimycotic solution and 0.3 mg/mL G418) in 5% CO2 in an incubator at 37° C. To prepare the assay, cells were trypsinized and resuspended in assay media (McCoy's 5A with no L-glutamine, 10% fetal bovine serum, 1× antibiotic-antimycotic solution and 0.3 mg/mL G418). An aliquot of 10,000 cells/100 μL was transferred to each well of a clear 96-well tissue culture plate. The cells were incubated in 5% CO2 at 37° C. in an incubator overnight to allow for proper cell attachment. An aliquot of 50 μL of compound containing assay media were then added to each well and the assay plate was kept in 5% CO2 at 37° C. in an incubator for 24 hours. The media was then removed from each well and 150 μL of a methanol/water mixture (80/20 v/v) was added to each well. The plates were kept at −80° C. freezer overnight to allow for complete cell lysis. An aliquot of 125 μL of extracted supernatant was analyzed by RapidFire high-throughout-mass spectrometry (Agilent) to determine the cellular 2-HG level. The IC50 of a given compound was calculated by fitting the dose response curve of cellular 2-HG inhibition at a given concentration with the four parameter logistic equation.

[2] = test system: HCT116 isogenic IDH1-R132C mutant cells; assay: Cellular 2-HG assay using HCT116 mutant IDH1 cells (IDH1-R132C), RapidFire mass spectrometry; assay type: cell-based
Method: as §1, §2

[3] = target: IDH1-R132C recombinant protein (Homo sapiens (Human), UniProt O75874, R132C); assay: IDH1-R132C enzymatic assay (diaphorase/resazurin readout of NADPH consumption); assay type: biochemical; details: IDH1-R132C enzyme; read-out: Enzyme IDH1 R132C IC50 (Range)
Sequence of IDH1-R132C recombinant protein (O75874 whole entry R132C): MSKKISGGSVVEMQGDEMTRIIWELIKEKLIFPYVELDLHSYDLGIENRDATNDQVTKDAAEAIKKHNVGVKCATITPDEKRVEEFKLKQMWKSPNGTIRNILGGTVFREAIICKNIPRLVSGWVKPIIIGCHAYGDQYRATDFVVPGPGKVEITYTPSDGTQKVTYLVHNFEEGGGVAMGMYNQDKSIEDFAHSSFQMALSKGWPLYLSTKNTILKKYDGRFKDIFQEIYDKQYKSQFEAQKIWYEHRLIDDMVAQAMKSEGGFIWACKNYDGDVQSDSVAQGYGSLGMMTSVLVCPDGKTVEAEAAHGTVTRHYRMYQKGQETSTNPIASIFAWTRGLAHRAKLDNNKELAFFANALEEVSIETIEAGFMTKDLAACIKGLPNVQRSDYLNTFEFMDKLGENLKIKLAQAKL
Method: (§3) Assays were performed in a 384-well black plate. An aliquot of 250 nL of compound was incubated with 10 μL of 30 nM IDH1-R132H or 10 nM IDH1-R132C recombinant protein in assay buffer (50 mM Tris pH=7.5, 150 mM NaCl, 5 mM MgCl2, 0.1% (w/v) Bovine Serum Albumin, and 0.01% Triton X-100) in each well at 25° C. for 15 minutes. After the plate was centrifuged briefly, an aliquot of 10 μL of 2 mM α-ketoglutarate and 20 μM NADPH solution prepared in assay buffer was then added to each well and the reaction was maintained at 25° C. for 45 minutes. An aliquot of 10 μL of diaphorase solution (0.15 U/mL diaphorase and 30 μM Resazurin in assay buffer) was added to each well. The plate was maintained at 25° C. for 15 minutes and then read on a plate reader with excitation and emission wavelengths at 535 nm and 590 nm, respectively. The IC50 of a given compound was calculated by fitting the dose response curve of inhibition of NADPH consumption at a given concentration with the four parameter logistic equation.

[4] = target: IDH1-R132H recombinant protein (Homo sapiens (Human), UniProt O75874, R132H); assay: IDH1-R132H enzymatic assay (diaphorase/resazurin readout of NADPH consumption); assay type: biochemical; details: IDH1-R132H enzyme; read-out: Enzyme IDH1 R132H IC50 (Range)
Sequence of IDH1-R132H recombinant protein (O75874 whole entry R132H): as the sequence (O75874 whole entry R132C) above, with C132H counted along it
Method: as §3

[5] = Homo sapiens, HCT-116, read-out: HCT116 IDH1 R132H IC50 (Range)
[6] = Homo sapiens, HCT-116, read-out: HCT116 IDH1 R132C IC50 (Range)

| Compound | IC50 [1, 5] | IC50 [2, 6] | IC50 [3] | IC50 [4] | IC50 ([1]; read-out: HCT116 IDH1 R132H IC50 (Range)) | IC50 ([2]; read-out: HCT116 IDH1 R132C IC50 (Range)) |
| --- | --- | --- | --- | --- | --- | --- |
| Cc1[nH]ncc1-c1ccnc(N[C@@H](C)c2cc3cc(Cl)ccc3[nH]c2=O)n1 [I-83] | 1000 to 10000 nM | 100 to 1000 nM | 1000 to 10000 nM | 100 to 1000 nM |  |  |
| CC(C)Cn1nccc1-c1ccnc(N[C@@H](C)c2cc3cc(Cl)ccc3[nH]c2=O)n1 [I-85] | 100 to 1000 nM | 100 to 1000 nM | 100 to 1000 nM | 100 to 1000 nM |  |  |
| COC(=O)C(c1ccnc(N[C@@H](C)c2cc3cc(Cl)ccc3[nH]c2=O)n1)S(C)(=O)=O (stereo partly shown) [I-134] |  |  | > 10000 nM |  |  |  |
| COc1nc(N[C@H](C)c2nc3cc(Cl)ccc3[nH]c2=O)ncc1C#N [I-157] |  |  | 1000 to 10000 nM | 100 to 1000 nM | < 100 nM | 100 to 1000 nM |
